These results are taken from article PMC12591170, “Glabridin‐Gold(I) Complex as a Novel Immunomodulatory Agent Targeting TrxR and MAPK Pathways for Synergistic Enhancement of Antitumor Immunity” (Advanced Science, 2025).

Each structure is given as a SMILES string.

The subject of series [1] is HepG2 cells. In words: MTT antiproliferative assay, HepG2. It counts as cell-based, human. On the procedure: All cells were incubated at 37 °C by DMEM complete medium (containing 1% penicillin−streptomycin and 12% FBS) in 5% CO2 incubator. 2–5 × 10^3 cells were cultured in 96‐well plates and each well contained 100 µL complete medium. OXA was dissolved in water, and all other complexes were dissolved in DMF. After cells adhered in the wells, different concentrations of complexes were diluted in 100 µL complete medium and added in the wells. The final volume in the each well was 200 µL and the content of DMF was maximum 0.5%. After 72 h incubation, the antiproliferative activity was tested by MTT assay.
Background: Tetrazolium dyes change colour on reduction, which living cells bring about.

The nature of series [2]: Stability analysis by 1H NMR. It counts as physicochemical. The protocol:
5 mM of complex 6d was incubated with DMSO‐d6 or the mixed solution (DMSO‐d6 /D2O = 9:1) or the same mixed solution with 5 mM of GSH for different times (0 – 72 h), and the ^1H NMR spectra were acquired. The stability of AF was determined by the same method.

The target of the next series is T1, TrxR (Homo sapiens, UniProt Q16881).
T1 construct: endogenous in cells; host or cells: HepG2
T1 sequence (Q16881 151-649 limits assumed): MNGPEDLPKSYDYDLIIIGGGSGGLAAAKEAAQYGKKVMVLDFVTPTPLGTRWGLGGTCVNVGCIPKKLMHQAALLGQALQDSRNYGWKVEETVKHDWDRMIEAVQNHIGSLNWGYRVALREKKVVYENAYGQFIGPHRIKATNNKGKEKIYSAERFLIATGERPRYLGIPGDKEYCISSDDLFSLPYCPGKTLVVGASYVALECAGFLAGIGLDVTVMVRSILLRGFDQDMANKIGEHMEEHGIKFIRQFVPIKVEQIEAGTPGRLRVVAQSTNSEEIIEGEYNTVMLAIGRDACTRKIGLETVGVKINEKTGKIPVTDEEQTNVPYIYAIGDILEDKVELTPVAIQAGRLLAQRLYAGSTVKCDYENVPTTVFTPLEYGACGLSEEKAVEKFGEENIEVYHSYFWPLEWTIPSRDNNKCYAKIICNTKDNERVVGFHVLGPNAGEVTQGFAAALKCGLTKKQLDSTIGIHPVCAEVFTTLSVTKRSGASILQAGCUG
The series can be described thus: Intracellular TrxR activity (kit, probe) and TrxR expression in HepG2. In kind it is cell-based. The protocol: 1 × 10^6 HepG2 cells were cultured in 6 cm culture dishes, and treated with DMF (0.1%), AF (4 µM) or different concentrations of 6d (2, 4, 8 µM) after cell adhesion. 24 h later, the intracellular TrxR activity was analyzed by the TrxR activity detection kit.
In addition, intracellular TrxR activity was detected by TrxR probe. 5 × 10^4 HepG2 cells were seeded in 12‐well plate. After 24 h, the complete medium was removed, and the each well was washed twice by phosphate buffer saline (PBS). 10 µM TrxR probe (dissolved in PBS) was added for 1 h incubation. Then, the probe was removed, and washing twice was performed by PBS. The fluorescence microscopy was applied to capture the cell images under the channel of FITC.
HepG2 cells were incubated in 6 cm culture dishes and treated with different complexes. The treated cells were lysed with lysis buffer (RIPA:PMSF:phosphatase inhibitor:protease inhibitor = 100:1:1:1). The lysed cells were further broken by sonication, and proteins were isolated by centrifugation. The protein concentrations were detected by BCA assay. 10% SDS PAGE gel was usually applied to separate the different kDa of proteins, and more than 200 kDa of proteins were separated using 8% SDS PAGE gel. After seperation, proteins were transferred onto polyvinylidene difluoride (PVDF) membranes. […] The target proteins’ bands were detected by the enhanced chemiluminescence (ECL) procedure.

The test system of series [3] is HepG2 cells. The series can be described thus: Apoptosis assay (annexin V-EGFP/PI). The conditions noted are these: HepG2, 24 h. In kind it is cell-based, human. The protocol: 4 × 10^5 HepG2 cells was seeded in 6‐well plates for overnight incubation. DMF (0.1%), AF (4 µM) or different concentrations of 6d (2, 4, 8 µM) were added in the wells for 24 h. PBS was applied to wash cells for two times, and cells were collected subsequently. After washing twice by PBS, Annexin V‐EGFP/PI Apoptosis Detection kit was used to dye the cells. Then, the apoptosis ratio was analyzed by flow cytometer.

In another series the test system is phosphorylated Akt. The series can be described thus: Western blot of phosphorylated Akt in HepG2. In kind it is cell-based, human. Particulars: HepG2, 24 h; GLA at 8 µM. The protocol: HepG2 cells were incubated in 6 cm culture dishes and treated with different complexes. The treated cells were lysed with lysis buffer (RIPA:PMSF:phosphatase inhibitor:protease inhibitor = 100:1:1:1). The lysed cells were further broken by sonication, and proteins were isolated by centrifugation. The protein concentrations were detected by BCA assay. 10% SDS PAGE gel was usually applied to separate the different kDa of proteins, and more than 200 kDa of proteins were separated using 8% SDS PAGE gel. After seperation, proteins were transferred onto polyvinylidene difluoride (PVDF) membranes. The target proteins were labeled by various specific primary antibodies at 4 °C overnight. Then, the membranes were treated with anti‐rabbit or anti‐mouse secondary antibody for 2 h. Tris buffered saline with tween 20 (TBST) was applied to wash the membranes after each operation above. The target proteins’ bands were detected by the enhanced chemiluminescence (ECL) procedure.
(A western blot detects proteins with antibodies after separation by electrophoresis.)

For a further series, the system named is Hepa1-6 tumors. The series can be described thus: In vivo antitumor assay, Hepa1-6 tumors. Set-up: species or system C57BL/6 mice.
A further series deals with PD-L1. The series can be described thus: In vivo PD-L1 expression in tumor tissue. The arrangement: species or system C57BL/6 mice. Particulars: western blot, 13 days of treatment.
Series [4] can be described thus: In vivo tolerability (body weight, survival, organ H&E). The protocol:
All mice were 6–8 weeks old males and procured from Hangzhou Medical College, located in Hangzhou, China. […] 2 × 10^6 Hepa1‐6 cells in 100 µL DMEM were subcutaneously seeded in underarms of C57BL/6 mice. […] Meanwhile, the mice weights and tumor volume were recorded, and the calculation formula of tumor volume was Volume = Width^2 × Length/2. After 13 days, all mice were sacrificed for collection of tumors, hearts, livers, spleens, lungs and kidneys. Collagenase IV (1 mg mL^−1) and DNase I (1 µg mL^−1) were applied to digest a part of the tumor tissue into cell suspension, and lysis buffer was used to remove red blood cells. The prepared cells above were stained with antibodies (anti‐CD3e‐FITC, and anti‐CD8a‐PE; anti‐CD11c‐APC, anti‐CD80‐PE, and anti‐CD86‐FITC; anti‐CD45‐Percp, anti‐CD11b‐APC, and anti‐Ly‐6G/Ly‐6C(Gr‐1)‐FITC; anti‐CD11b‐APC, anti‐CD206‐PE, and CD86‐FITC). CD3^+CD8^+ T cells, CD80^+CD86^+ DCs, CD11b^+Gr‐1^+ MDSCs, CD206^−CD86^+ M1‐type macrophages and CD206^+CD86^− M2‐type macrophages were analyzed by flow cytometry. Then, another part of tumor tissues were fixed with 4% paraformaldehyde, embedded in paraffin, cut into slices and stained with antibodies for immunofluorescence and immunohistochemistry analysis. H&E stain assays were applied for all tissue samples.

The conditions of series [5]: mouse, in vivo.

A word on the IC50: it is the midpoint of a concentration-inhibition curve. A low value points to greater potency. As to `CCn1ccn(CCCCCOc2ccc([C@@H]3COc4c(ccc5c4C=CC(C)(C)O5)C3)c(OCCCCCn3ccn(CC)[c]3=[Au][Br])c2)[c]1=[Au][Br]` [6d], the IC50 in the series on HepG2 cells [1] (72 h MTT assay, Mean ± SD) stood at 2540 ± 130 nM. Besides, in the series with HepG2 cells [1] (HepG2 cells), the “times more toxic than GLA” value came to 16 times. For the same compound, the “time after which 1H NMR spectra began to change / showed new peaks” value in [2] (5 mM complex, DMSO-d6/D2O 9:1 containing GSH (5 mM)) turned out to be 12 h. Moreover, the “stability by 1H NMR” value in [2] (DMSO-d6, over 72 h) is given as “remained stable”; in series [2] (DMSO-d6/D2O (v1/v2 = 9:1), over 72 h) it was “remained stable”. The “TrxR expression level (western blot)” value at TrxR (HepG2, 24 h) was “did not downregulate TrxR expression levels”. Besides, the “intracellular TrxR activity” value at TrxR (HepG2, 24 h, 2, 4, 8 µM, TrxR probe and activity assay kit) is listed as “suppressed TrxR activity”. Further, the apoptosis result in the series on HepG2 cells [3] is “apoptosis was observed”. In addition, the “Akt phosphorylation (western blot)” value in the series on phosphorylated Akt is “inhibited Akt phosphorylation”. The “tumor volume growth vs model group” value with Hepa1-6 tumors (after 11 days of treatment, 5 mg kg^−1 i.p. every two days) was “significant reduction in tumor volume growth”. The “tumor growth vs model group” value in the series with Hepa1-6 tumors (after 13 days, 6d and OXA 5 mg kg^−1, GLA 10 mg kg^−1, i.p. every two days) is “significant tumor growth inhibition”. In the series with PD-L1, the “PD-L1 expression in tumor tissue” value is “inhibited”. In addition, in [4] (6d and OXA 5 mg kg^−1, GLA 10 mg kg^−1, i.p. every two days, OXA after nine days), the “effect on mice body weight” value was “no significant effect”. Moreover, the “organ tissue damage (H&E staining)” value in series [4] (heart, liver, spleen, lung, kidney, day 13) is on record as “did not cause noticeable damage to organ tissues”. Also, the safe dose in series [5] came out at 5 mg/kg.
